Drawing on patent publication EP3390549B1, “FORMULATIONS CONTAINING A SOLID SOLVENT” (Merck Patent GmbH, priority 2015, dated 2017), this text covers Solubility limit for two compounds.

This data set is described as follows: Solubility limit of the solid (second) organic solvent in the liquid (first) organic solvent. It is filed as physicochemical. Particulars: dissolved at 40°C, stability on standing up to a week at 25°C. An excerpt:
The differences between the Hansen Solubility parameter Hd, Hp and Hh of the first and the second solvent can be realized individually or collectively. In a very preferred embodiment, at least two and more preferred all the differences between the Hansen Solubility parameter Hd, Hp and Hh of the first and the second solvent are commonly realized.

The mark [1] stands for this setting: in liquid solvent 3-Phenoxy toluene.

Some results are limits rather than exact numbers.

With `C=C1CC[C@H]2O[C@]2(C)CC[C@@H]2[C@@H]1CC2(C)C` [Caryophyllene oxide], the Solubility limit runs as follows: under setting [1], 55%; (in liquid solvent α-Pinene oxide) 60%; (in liquid solvent β-Caryophyllene) 35%.

Under setting [1], `O=C1CCCCCCCCCCCCCCO1` [ω-Pentadecalactone] came in with a Solubility limit above 70%.
